# Test results: patent US9492398B2, “Nanocapsulation of essential oils for preventing or curing infectious diseases alone or with an antibiotic” (Eydo Pharma, priority 2011, dated 2016)
# Tests used:
# [1] = from the literature; cited from earlier work
# A. baumanni 12 = test: Minimal inhibitory concentration on Muller-Hinton agar; format: cell-based; settings: read-out: Minimal Inhibitory Concentration
# Protocol: (§1) The essential oils were also tested individually for their minimal inhibitory concentration.
# (§2) The solution was first prepared at 40% in DMSO before being placed on the Muller-Hinton agar in the following manner in Table VIII:
# (§3) Twenty-two different microorganisms were tested and their minimal inhibitory concentration was tested.
# A. baumanni AYE = test: as above; format: cell-based
# Protocol: as §1, §2, §3
# A. baumanni CIP107292 = test: as above; format: cell-based
# Protocol: as §1, §2, §3
# A. baumanni CIP5377 = test: as above; format: cell-based; settings: read-out: Minimal Inhibitory Concentration
# Protocol: as §1, §2, §3
# A. baumanni CIP7034 = test: as above; format: cell-based
# Protocol: as §1, §2, §3
# A. baumanni RCH = test: as above; format: cell-based; settings: read-out: Minimal Inhibitory Concentration
# Protocol: as §1, §2, §3
# A. baumanni SAN008 = test: as above; format: cell-based
# Protocol: as §1, §2, §3
# E. aerogenes 0705A0867 = test: as above; format: cell-based
# Protocol: as §1, §2, §3
# E. cloacae 0705A1743 = test: as above; format: cell-based
# Protocol: as §1, §2, §3
# E. coli 0705A0434 = test: as above; format: cell-based
# Protocol: as §1, §2, §3
# E. coli ATCC25922 = test: as above; format: cell-based
# Protocol: as §1, §2, §3
# K. oxyloca 0705C0187 = test: as above; format: cell-based
# Protocol: as §1, §2, §3
# P. aeroginosa 0704C0134 = test: as above; format: cell-based
# Protocol: as §1, §2, §3
# P. aeroginosa ATCC27853 = test: as above; format: cell-based; settings: read-out: Minimal Inhibitory Concentration
# Protocol: as §1, §2, §3
# S. aureus 0701A0095 = test: as above; format: cell-based; settings: Staphylococcus aureus, 0701A0095, read-out: Minimal Inhibitory Concentration
# Protocol: as §1, §2, §3
# S. aureus 0702E0196 = test: as above; format: cell-based
# Protocol: as §1, §2, §3
# S. aureus 0703H0036 = test: as above; format: cell-based
# Protocol: as §1, §2, §3
# S. aureus 0706C0025 = test: as above; format: cell-based
# Protocol: as §1, §2, §3
# S. aureus ATC25923 = test: as above; format: cell-based
# Protocol: as §1, §2, §3
# Salmonell enteritidis 4 = test: as above; format: cell-based
# Protocol: as §1, §2, §3
smiles,measurement,setting,value
[H]/N=C(/N)N[C@H]1[C@H](O)[C@@H](O)[C@H](O[C@@H]2O[C@@H](C)[C@](O)(C=O)[C@H]2O[C@@H]2O[C@@H](CO)[C@H](O)[C@@H](O)[C@@H]2NC)[C@@H](N/C(N)=N\[H])[C@@H]1O [Streptomycin],LD50 in mice by intraperitoneal injection,[1],525 mg/kg
Cc1ccc(C(C)C)cc1O [carvacrol],MIC,A. baumanni 12,1500 µg/mL
same,Minimal Inhibitory Concentration,A. baumanni AYE; A. baumanni AYE,1.5 mg/mL
same,MIC,"A. baumanni AYE; read-out: Minimal Inhibitory Concentration, A. baumanni AYE",1000 µg/mL
same,Minimal Inhibitory Concentration,A. baumanni CIP107292; A. baumanni CIP107292,1.5 mg/mL
same,MIC,"A. baumanni CIP107292; read-out: Minimal Inhibitory Concentration, A. baumanni CIP107292",1000 µg/mL
same,MIC,A. baumanni CIP5377,1000 µg/mL
same,Minimal Inhibitory Concentration,A. baumanni CIP7034; A. baumanni CIP7034,1.5 mg/mL
same,MIC,"A. baumanni CIP7034; read-out: Minimal Inhibitory Concentration, A. baumanni CIP7034",1000 µg/mL
same,MIC,A. baumanni RCH,1000 µg/mL
same,Minimal Inhibitory Concentration,A. baumanni SAN008; A. baumanni SAN008,1.5 mg/mL
same,MIC,"A. baumanni SAN008; read-out: Minimal Inhibitory Concentration, A. baumanni SAN008",1000 µg/mL
same,Minimal Inhibitory Concentration,E. aerogenes 0705A0867; E. aerogenes 0705A0867,2 mg/mL
same,MIC,"E. aerogenes 0705A0867; Klebsiella aerogenes, 0705A0867, read-out: Minimal Inhibitory Concentration, E. aerogenes 0705A0867",1500 µg/mL
same,Minimal Inhibitory Concentration,E. cloacae 0705A1743; E. cloacae 0705A1743,2 mg/mL
same,MIC,"E. cloacae 0705A1743; Enterobacter cloacae, 0705A1743, read-out: Minimal Inhibitory Concentration, E. cloacae 0705A1743",1500 µg/mL
same,Minimal Inhibitory Concentration,E. coli 0705A0434; E. coli 0705A0434,2 mg/mL
same,MIC,"E. coli 0705A0434; Escherichia coli, 0705A0434, read-out: Minimal Inhibitory Concentration, E. coli 0705A0434",1500 µg/mL
same,Minimal Inhibitory Concentration,E. coli ATCC25922; E. coli ATCC25922,2 mg/mL
same,MIC,"E. coli ATCC25922; Escherichia coli, ATCC25922, read-out: Minimal Inhibitory Concentration, E. coli ATCC25922",1500 µg/mL
same,Minimal Inhibitory Concentration,K. oxyloca 0705C0187; K. oxyloca 0705C0187,2 mg/mL
same,MIC,"K. oxyloca 0705C0187; read-out: Minimal Inhibitory Concentration, K. oxyloca 0705C0187",1500 µg/mL
same,Minimal Inhibitory Concentration,P. aeroginosa 0704C0134; P. aeroginosa 0704C0134,5 mg/mL
same,MIC,"P. aeroginosa 0704C0134; read-out: Minimal Inhibitory Concentration, P. aeroginosa 0704C0134",2500 µg/mL
same,MIC,P. aeroginosa ATCC27853,7500 µg/mL
same,MIC,S. aureus 0701A0095,1500 µg/mL
same,Minimal Inhibitory Concentration,S. aureus 0702E0196; S. aureus 0702E0196,1 mg/mL
same,MIC,"S. aureus 0702E0196; Staphylococcus aureus, 0702E0196, read-out: Minimal Inhibitory Concentration, S. aureus 0702E0196",1500 µg/mL
same,Minimal Inhibitory Concentration,S. aureus 0703H0036; S. aureus 0703H0036,2 mg/mL
same,MIC,"S. aureus 0703H0036; Staphylococcus aureus, 0703H0036, read-out: Minimal Inhibitory Concentration, S. aureus 0703H0036",1500 µg/mL
same,Minimal Inhibitory Concentration,S. aureus 0706C0025; S. aureus 0706C0025,2 mg/mL
same,MIC,"S. aureus 0706C0025; Staphylococcus aureus, 0706C0025, read-out: Minimal Inhibitory Concentration, S. aureus 0706C0025",1500 µg/mL
same,Minimal Inhibitory Concentration,S. aureus ATC25923; S. aureus ATC25923,0.75 mg/mL
same,MIC,"S. aureus ATC25923; Staphylococcus aureus, ATC25923, read-out: Minimal Inhibitory Concentration, S. aureus ATC25923",1500 µg/mL
same,Minimal Inhibitory Concentration,Salmonell enteritidis 4; Salmonell enteritidis 4,2.5 mg/mL
same,MIC,"Salmonell enteritidis 4; read-out: Minimal Inhibitory Concentration, Salmonell enteritidis 4",2000 µg/mL
